Values joined by “and” are separate entries in the source; they are usually repeats but may differ in a detail not shown here. Equal values may be shown once.
Key:
PfCRT^Dd2 = PfCRT^Dd2 (Plasmodium falciparum, UniProt Q9N623, A220S/I356T/K76T/M74I/N326S/N75E/Q271E/R371I); assay: Drug uptake assay, X. laevis oocytes expressing PfCRT^Dd2; assay type: cell-based; settings: for PfCRTDd2 transport activity pH 6.0: 50 µM external drug, 1 h, independent samples (means in Fig 4c)
Method: (§1) Oocytes were obtained as described previously. Briefly, adult (>2 years old) female X. laevis frogs (NASCO) were anesthetized in a cooled solution of ethyl 3-amino benzoate methanesulfonate (0.1%, w/v), followed by a surgical removal of parts of the ovary. The ovary lobes were carefully dissected and small pieces of oocytes were incubated in Ca^2+-free ND96 buffer (96 mM NaCl, 2 mM KCl, 1 mM MgCl2 buffered with 5 mM HEPES/NaOH, pH 7.5) supplemented with collagenase D (0.1%, w/v; Roche), BSA (0.5%, w/v), and 9 mm Na2HPO4 at 18 °C for 14-16 h while gentle shaking. After incubation, the oocytes were carefully washed several times with ND96 buffer (96 mM NaCl, 2 mM KCl, 1.8 mM CaCl2, 1 mM MgCl2 buffered with 5 mM HEPES/NaOH, pH 7.5) supplemented with 100 mg l^−1 gentamycin). Defolliculated and healthy-looking stage V-VI oocytes were manually selected for RNA microinjection. The RNA was generated as following: The codon-optimized sequences of PfCRT variants were cloned into the pSP64T expression vector. After vector linearization using the restriction endonucleases BamHI or SalI (New England Biolabs), transcription was performed using the in vitro SP6 mMessage mMachine Kit (Ambion)[34]. The obtained RNA was kept at −80 °C and diluted with nuclease-free water to a concentration of 0.6 μg μl^−1. Precision-bore glass capillary tubes (3.5-inch glass capillaries; Drummond Scientific Co.) were pulled on a vertical puller (P-87 Flaming/Brown micropipette puller, Sutter Instrument Co.), graduated, and placed on a microinjector (Nanoject II Auto-Nanoliter Injector, Drummond Scientific Co.). 50 nl of nuclease-free water alone (control oocytes) or 50 nl of 0.6 μg μl^−1 RNA were injected under stereomicroscopic control. Injected oocytes were incubated for 46–72 h at 18 °C with twice-daily buffer changes before usage in experiments.
Drug uptake assays were performed as described previously[21],[22],[24],[34]. […] The direction of radio-labeled drug transport is here from the mostly acidic extracellular solution (pH 4.5 or 6.0, as indicated) into the oocyte cytosol (pH ∼ 7.2), which corresponds to the efflux of drug from the acidic digestive vacuole (pH 5.2) into the parasite cytoplasm (pH 7.2). The topology of PfCRT in the oolemma is such that both the N- and C-terminus face the extracellular milieu[3],[22]. In the parasite, the N- and C-terminus face the lumen of the digestive vacuole. […] For determination of the amount of drug uptake for each oocyte, the reaction medium was removed and the oocytes were washed three times with 2 ml of ice-cold ND96 buffer. Each oocyte was individually transferred to a scintillation vial containing 5% sodium dodecyl sulfate (200 μl) for lysis. […] Oocytes that were injected with water instead of RNA were analyzed in parallel, representing the uptake of a drug by diffusion and/or endogenous permeation pathways. The resulting value represents the “background“ level of drug accumulation in oocytes (in-depth discussion in[22]). The specific PfCRT-mediated uptake was determined by subtracting the corresponding background value measured in water-injected oocytes from that of PfCRT-expressing oocytes. In all cases, at least three separate experiments were performed on oocytes from different frogs (biological replicate), and for each condition in an experiment, measurements were made from 10 oocytes per treatment. For pH 5.5, 6.0, and 6.5, ND96 was buffered with 5 mM MES/Tris base. For pH 4.5, 5 mM Homo-Pipes was used as a buffer and 5 mM HEPES for uptake at pH 7.0.

PfCRT variant E207A = assay: Drug uptake assay, oocytes expressing E207A; assay type: cell-based, Plasmodium falciparum; settings: for E207A transport activity pH 4.5 / E207A transport activity pH 6.0: 50 µM external drug, 1 h
Method: Site-directed mutagenesis of PfCRT^Dd2 was performed as described using the megaprimer method with overlap extension[21],[54]. The primer pairs used are listed in Supplementary Table 6. Please note that a codon-optimized and oocyte-adapted version of PfCRT^Dd2 was used[22] (Supplementary Fig. 16). The resulting DNA fragment was cloned into the SP64T expression vector and verified by sequencing.
as §1
Drug uptake assays were performed as described previously[21],[22],[24],[34]. […] The direction of radio-labeled drug transport is here from the mostly acidic extracellular solution (pH 4.5 or 6.0, as indicated) into the oocyte cytosol (pH ∼ 7.2), which corresponds to the efflux of drug from the acidic digestive vacuole (pH 5.2) into the parasite cytoplasm (pH 7.2). The topology of PfCRT in the oolemma is such that both the N- and C-terminus face the extracellular milieu[3],[22]. In the parasite, the N- and C-terminus face the lumen of the digestive vacuole. […] For determination of the amount of drug uptake for each oocyte, the reaction medium was removed and the oocytes were washed three times with 2 ml of ice-cold ND96 buffer. Each oocyte was individually transferred to a scintillation vial containing 5% sodium dodecyl sulfate (200 μl) for lysis. […] Oocytes that were injected with water instead of RNA were analyzed in parallel, representing the uptake of a drug by diffusion and/or endogenous permeation pathways. The resulting value represents the “background“ level of drug accumulation in oocytes (in-depth discussion in[22]). The specific PfCRT-mediated uptake was determined by subtracting the corresponding background value measured in water-injected oocytes from that of PfCRT-expressing oocytes. In all cases, at least three separate experiments were performed on oocytes from different frogs (biological replicate), and for each condition in an experiment, measurements were made from 10 oocytes per treatment. For pH 5.5, 6.0, and 6.5, ND96 was buffered with 5 mM MES/Tris base.

[1] = system: CCN(CC)CCCC(C)Nc1ccnc2cc(Cl)ccc12; assay: Drug uptake assay, X. laevis oocytes expressing PfCRT^Dd2; assay type: cell-based, Plasmodium falciparum; settings: 18.0 °C
Method: Oocytes were obtained as described previously[24]. Briefly, adult (>2 years old) female X. laevis frogs (NASCO) were anesthetized in a cooled solution of ethyl 3-amino benzoate methanesulfonate (0.1%, w/v), followed by a surgical removal of parts of the ovary. The ovary lobes were carefully dissected and small pieces of oocytes were incubated in Ca^2+-free ND96 buffer (96 mM NaCl, 2 mM KCl, 1 mM MgCl2 buffered with 5 mM HEPES/NaOH, pH 7.5) supplemented with collagenase D (0.1%, w/v; Roche), BSA (0.5%, w/v), and 9 mm Na2HPO4 at 18 °C for 14-16 h while gentle shaking. After incubation, the oocytes were carefully washed several times with ND96 buffer (96 mM NaCl, 2 mM KCl, 1.8 mM CaCl2, 1 mM MgCl2 buffered with 5 mM HEPES/NaOH, pH 7.5) supplemented with 100 mg l^−1 gentamycin). Defolliculated and healthy-looking stage V-VI oocytes were manually selected for RNA microinjection. […]
Drug uptake assays were performed as described previously[21],[22],[24],[34]. […] Oocytes that were injected with water instead of RNA were analyzed in parallel, representing the uptake of a drug by diffusion and/or endogenous permeation pathways. […] The specific PfCRT-mediated uptake was determined by subtracting the corresponding background value measured in water-injected oocytes from that of PfCRT-expressing oocytes. […]

[2] = CQ transport in the presence of verapamil, independent samples

Sequence of PfCRT^Dd2 (Q9N623 whole entry A220S/I356T/K76T/M74I/N326S/N75E/Q271E/R371I): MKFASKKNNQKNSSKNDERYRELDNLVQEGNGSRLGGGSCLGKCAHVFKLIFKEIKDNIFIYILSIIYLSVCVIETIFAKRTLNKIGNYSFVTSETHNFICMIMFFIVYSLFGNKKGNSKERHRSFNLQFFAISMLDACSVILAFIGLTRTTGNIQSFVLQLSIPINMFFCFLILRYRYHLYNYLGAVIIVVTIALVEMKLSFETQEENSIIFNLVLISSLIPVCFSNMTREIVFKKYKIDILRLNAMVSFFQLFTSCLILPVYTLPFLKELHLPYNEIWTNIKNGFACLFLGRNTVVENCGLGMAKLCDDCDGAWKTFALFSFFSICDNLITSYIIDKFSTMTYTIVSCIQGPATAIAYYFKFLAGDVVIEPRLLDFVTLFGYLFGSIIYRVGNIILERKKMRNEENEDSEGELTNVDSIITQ

Row | Compound | PfCRTDd2 transport activity pH 6.0 (PfCRT^Dd2) | E207A transport activity pH 4.5 (PfCRT variant E207A; independent samples) | E207A transport activity pH 6.0 (PfCRT variant E207A; independent samples) | other results
1 | NC12CC3CC(CC(C3)C1)C2 [AMA, amantadine] | 3.96 pmol oocyte-1 h-1 and 5.23 pmol oocyte-1 h-1 and 3.48 pmol oocyte-1 h-1 | – | – | –
2 | Clc1ccc2c(N3CCN(CCCN4CCN(c5ccnc6cc(Cl)ccc56)CC4)CC3)ccnc2c1 [PPQ, piperaquine] | 28.14 pmol oocyte-1 h-1 and 21.87 pmol oocyte-1 h-1 and 30.01 pmol oocyte-1 h-1 and 33.33 pmol oocyte-1 h-1 | 9.66 pmol oocyte-1 h-1 and 9.12 pmol oocyte-1 h-1 and 9.57 pmol oocyte-1 h-1 and 5.62 pmol oocyte-1 h-1 | 8.93 pmol oocyte-1 h-1 and 12.01 pmol oocyte-1 h-1 and 12.48 pmol oocyte-1 h-1 and 12.86 pmol oocyte-1 h-1 | –
3 | C=C[C@H]1C[N@@]2CC[C@H]1C[C@@H]2[C@@H](O)c1ccnc2ccc(OC)cc12 [QD, quinidine] | 4.23 pmol oocyte-1 h-1 and 3.26 pmol oocyte-1 h-1 and 4.00 pmol oocyte-1 h-1 and 4.74 pmol oocyte-1 h-1 and 4.12 pmol oocyte-1 h-1 and 4.59 pmol oocyte-1 h-1 | 1.55 pmol oocyte-1 h-1 and 1.47 pmol oocyte-1 h-1 and 1.04 pmol oocyte-1 h-1 and 1.61 pmol oocyte-1 h-1 | 2.30 pmol oocyte-1 h-1 and 2.18 pmol oocyte-1 h-1 and 1.61 pmol oocyte-1 h-1 and 1.77 pmol oocyte-1 h-1 and 2.20 pmol oocyte-1 h-1 | –
4 | C=C[C@H]1C[N@@]2CC[C@H]1C[C@H]2[C@H](O)c1ccnc2ccc(OC)cc12 [QN, quinine] | 6.11 pmol oocyte-1 h-1 and 5.59 pmol oocyte-1 h-1 and 5.35 pmol oocyte-1 h-1 and 4.57 pmol oocyte-1 h-1 | 1.81 pmol oocyte-1 h-1 and 1.79 pmol oocyte-1 h-1 and 2.22 pmol oocyte-1 h-1 and 1.30 pmol oocyte-1 h-1 and 1.76 pmol oocyte-1 h-1 | 2.22 pmol oocyte-1 h-1 and 1.72 pmol oocyte-1 h-1 and 2.41 pmol oocyte-1 h-1 and 2.60 pmol oocyte-1 h-1 | –
5 | CC[C@]1(O)C[C@@H]2CN(CCc3c([nH]c4ccccc34)[C@@](C(=O)OC)(c3cc4c(cc3OC)N(C)[C@H]3[C@@](O)(C(=O)OC)[C@H](OC(C)=O)[C@]5(CC)C=CCN6CC[C@]43[C@@H]65)C2)C1 [VNB, vinblastine] | n.u. | – | n.u. | transport of the drug by PfCRT^Dd2 (PfCRT^Dd2; pH 6.0, in words): Neither PfCRT^Dd2 nor E207A acted on; transport of the drug by E207A (PfCRT variant E207A; pH 6.0, in words): Neither PfCRT^Dd2 nor E207A acted on
6 | CC[C@]1(O)C[C@H]2CN(CCc3c([nH]c4ccccc34)[C@@](C(=O)OC)(c3cc4c(cc3OC)N(C=O)[C@H]3[C@@](O)(C(=O)OC)[C@H](OC(C)=O)[C@]5(CC)C=CCN6CC[C@]43[C@@H]65)C2)C1 [VNC, vincristine] | n.u. | – | n.u. | transport of the drug by PfCRT^Dd2 (PfCRT^Dd2; pH 6.0, in words): Neither PfCRT^Dd2 nor E207A acted on; transport of the drug by E207A (PfCRT variant E207A; pH 6.0, in words): Neither PfCRT^Dd2 nor E207A acted on
7 | COc1ccc(CCN(C)CCCC(C#N)(c2ccc(OC)c(OC)c2)C(C)C)cc1OC (stereo not drawn) [VP, verapamil] | – | – | – | PfCRTDd2 CQ + VP transport activity pH 6.0 (PfCRT^Dd2; [2]): 1.45 pmol oocyte-1 h-1 and 1.56 pmol oocyte-1 h-1 and 1.71 pmol oocyte-1 h-1 and 1.84 pmol oocyte-1 h-1; effect on CQ transport by PfCRT^Dd2 (PfCRT^Dd2; pH 6.0, in words): blocked CQ transport; E207A CQ + VP transport activity pH 6.0 (PfCRT variant E207A; [2]): 0.66 pmol oocyte-1 h-1 and 0.74 pmol oocyte-1 h-1 and 0.45 pmol oocyte-1 h-1; effect on CQ transport by E207A (PfCRT variant E207A; pH 6.0, in words): blocked CQ transport
8 | PfCRT^Dd2 (Plasmodium falciparum; A220S/I356T/K76T/M74I/N326S/N75E/Q271E/R371I) | – | – | – | Km ([1]; other: PfCRT^Dd2, pH 4.5, pH 4.5): 200 ± 60 µM; Km ([1]; other: PfCRT^Dd2, pH 6.0, pH 6.0): 270 ± 50 µM

— paper PMC10349806 (Nature Communications, 2023)
